These results are taken from patent US10174037B2, “Dihydropyrazolopyrimidinone compounds as PDE2 inhibitors” (Merck Sharp & Dohme Corp., priority 2015, dated 2019).

Molecules are shown by their SMILES.

The assay has as its target human PDE2A1 (Homo sapiens (Human), UniProt O00408). In words: PDE selectivity IMAP FP assay, human PDE2A1. As to conditions: Human PDE2; Lab B; read-out: Human PDE2 Ki (nM) Lab B. In kind it is biochemical. On the procedure: Selectivity for PDE2, as compared to other PDE families, was assessed using the IMAP® technology. Human PDE10A2 enzyme was prepared from cytosolic fractions of transiently transfected HEK cells.
A Labcyte POD 810 (Labcyte, Sunnyvale, Calif.) was used to dispense 200 nL from each well of the titration plate to make eleven copies of the assay plate for each titration, one copy for each PDE enzyme. A solution of each enzyme (dilution from aliquots, sufficient to produce 20% substrate conversion) and a separate solution of FAM-labeled cAMP or FAM-labeled cGMP from Molecular Devices (Sunnyvale, Calif., product # R7506 or cGMP#R7508), at a final concentration of 50 nM were made in the assay buffer (10 mM Tris HCl, pH 7.2, 10 mM MgCl2, 0.05% NaN3 0.01% Tween-20, and 1 mM DTT). Note that the substrate for PDE2 is 50 nM FAM cAMP containing 1000 nM of cGMP. The enzyme and the substrate were then added to the assay plates in two consecutive additions of 10 μL and then shaken to mix. The reaction was allowed to proceed at room temperature for 60 minutes. A binding solution was then made from the kit components, comprised of 80% Solution A, 20% Solution B and binding reagent at a volume of 1/600 the total binding solution. The enzymatic reaction was stopped by addition of 60 μL of the binding solution to each well of the assay plate. […] The plates were incubated at room temperature for one hour, then the parallel and perpendicular fluorescence was measured using a Tecan Genios Pro plate reader (Tecan, Switzerland). […] The intrinsic PDE2 inhibitory activity of a compound which may be used in accordance with the present invention may be determined by these assays. […]
The PDE2 Ki is a measure of the ability of the test compound to inhibit the action of the PDE2 enzyme.

As a reminder, the Ki is the equilibrium dissociation constant of an inhibitor or competing ligand from its target.

human PDE2A1, sequence (O00408 other isoform, or with tags, fused parts or gaps): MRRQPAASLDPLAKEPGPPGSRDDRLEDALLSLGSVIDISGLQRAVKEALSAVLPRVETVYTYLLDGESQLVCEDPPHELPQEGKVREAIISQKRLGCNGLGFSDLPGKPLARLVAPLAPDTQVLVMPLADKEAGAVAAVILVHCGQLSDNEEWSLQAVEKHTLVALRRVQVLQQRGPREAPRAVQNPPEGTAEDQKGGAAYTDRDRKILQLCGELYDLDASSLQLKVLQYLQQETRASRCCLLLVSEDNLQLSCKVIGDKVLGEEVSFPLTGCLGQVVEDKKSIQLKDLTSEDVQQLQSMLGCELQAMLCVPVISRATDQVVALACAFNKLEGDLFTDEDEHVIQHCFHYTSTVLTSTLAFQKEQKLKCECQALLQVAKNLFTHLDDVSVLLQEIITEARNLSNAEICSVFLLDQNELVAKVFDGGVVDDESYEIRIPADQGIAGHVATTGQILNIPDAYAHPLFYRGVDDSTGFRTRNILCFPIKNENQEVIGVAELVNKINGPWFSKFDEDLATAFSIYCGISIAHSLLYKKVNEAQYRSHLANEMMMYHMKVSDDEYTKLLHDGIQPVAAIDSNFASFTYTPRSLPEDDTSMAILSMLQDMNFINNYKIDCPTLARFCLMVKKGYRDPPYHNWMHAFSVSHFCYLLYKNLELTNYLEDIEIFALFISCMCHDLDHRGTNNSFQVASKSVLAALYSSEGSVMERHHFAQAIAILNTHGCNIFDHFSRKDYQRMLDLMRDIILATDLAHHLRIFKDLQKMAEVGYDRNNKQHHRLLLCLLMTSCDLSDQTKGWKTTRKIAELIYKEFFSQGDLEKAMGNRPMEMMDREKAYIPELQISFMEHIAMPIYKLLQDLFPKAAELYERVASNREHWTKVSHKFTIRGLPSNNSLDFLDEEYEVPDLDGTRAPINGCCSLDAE

On to `CC(C)(C)C(c1ccc(C(F)(F)F)c(F)c1)n1nc(CC(F)(F)F)c2c(=O)[nH]c(O)nc21` (single isomer, unassigned) [Example 246, (R)- or (S)-1-(1-(3-Fluoro-4-(trifluoromethyl)phenyl)-2,2-dimethylpropyl)-6-hydroxy-3-(2,2,2-trifluoroethyl)-1H-pyrazolo[3,4-d]pyrimidin-4(5H)-one], for which the Ki turned out to be 408 nM. In the case of `CC(c1ccc(CC(F)(F)F)cc1)n1nc(CF)c2c(=O)[nH]c(N(C)C)nc21` (single isomer, unassigned) [Example 175, (S)- or (R)-6-(Dimethylamino)-3-(fluoromethyl)-1-(1-(4-(2,2,2-trifluoroethyl)phenyl)ethyl)-1H-pyrazolo[3,4-d]pyrimidin-4(5H)-one], the Ki stood at 0.39 nM.

For `CC(c1ccc(S(F)(F)(F)(F)F)cc1)n1nc(C(F)(F)F)c2c(=O)[nH]c(O)nc21` (single isomer, unassigned) [Example 312, (S)- or (R)-6-Hydroxy-1-{1-[4-(pentafluoro-lambda~6-sulfanyl)phenyl]ethyl}-3-(trifluoromethyl)-1,5-dihydro-4H-pyrazolo[3,4-d]pyrimidin-4-one], the inhibition constant (Ki) worked out at 265 nM. As for `CC(c1ccc(C(F)F)cc1)n1nc(CO)c2c(=O)[nH]c(N(C)C)nc21` (single isomer, unassigned) [Example 82, (R)- or (S)-1-(1-(4-(Difluoromethyl)phenyl)ethyl)-6-(dimethylarnino)-3-(hydroxymethyl)-1H-pyrazolo[3,4-d]pyrimidin-4(5H)-one], the Ki came to 35 nM. In the case of `C[C@@H](c1ccc(C(F)(F)F)cc1)n1nc(CO)c2c(=O)[nH]c(N3CC(F)(F)C3)nc21` [Example 159, 6-(3,3-Difluoroazetidin-1-yl)-3-(hydroxymethyl)-1-{(1S)-1-[4-(trifluoromethyl)phenyl]ethyl}-1,5-dihydro-4H-pyrazolo[3,4-d]pyrimidin-4-one], the inhibition constant Ki was found to be 2.3 nM.

As to `CC(c1ccc(C(F)(F)F)cc1F)n1nc(C(F)(F)F)c2c(=O)[nH]c(O)nc21` (single isomer, unassigned) [Example 305], the Ki came to 1.9 nM. The same measure for `O=c1[nH]c(O)nc2c1c(C(F)(F)F)nn2C(c1ccc(C(F)(F)F)cc1)C1CC1` (single isomer, unassigned) [Example 336, (S)- or (R)-1-(Cyclopropyl(4-(trifluoromethyl)phenyl)methyl)-6-hydroxy-3-(trifluoromethyl)-1H-pyrazolo[3,4-d]pyrimidin-4(5H)-one]: 3.2 nM. The same measure for `CN(C)c1nc2c(c(CF)nn2C(c2ccc(C(F)(F)F)cc2)C2CC2)c(=O)[nH]1` (single isomer, unassigned) [Example 178, (R)- or (S)-1-(Cyclopropyl(4-(trifluoromethyl)phenyl)methyl)-6-(dimethylamino)-3-(fluoromethyl)-1H-pyrazolo[3,4-d]pyrimidin-4(5H)-one]: 1.1 nM; for `CC(C)C(c1ccc(C(F)F)c(F)c1)n1nc(CO)c2c(=O)[nH]c(N(C)C)nc21` (single isomer, unassigned) [Example 115, (R)- or (S)-1-(1-(4-(Difluoromethyl)-3-fluorophenyl)-2-methylpropyl)-6-(dimethylamino)-3-(hydroxymethyl)-1H-pyrazolo[3,4-d]pyrimidin-4(5H)-one]: 0.21 nM. The same measure for `CN(C)c1nc2c(c(CO)nn2C(c2ccc(C(C)(F)F)cc2F)C2CC2)c(=O)[nH]1` (single isomer, unassigned) [Example 352, (R)- or (S)-1-(Cyclopropyl(4-(1,1-difluoroethyl)-2-fluorophenyl)methyl)-6-(dimethylamino)-3-(hydroxymethyl)-1H-pyrazolo[3,4-d]pyrimidin-4(5H)-one]: 1.2 nM; for `O=c1[nH]c(O)nc2c1c(C(F)(F)F)nn2C1(c2ccc(C(F)(F)F)cc2)CC1` [Example 354, 6-Hydroxy-3-(trifluoromethyl)-1-(1-(4-(trifluoromethyl)phenyl)cyclopropyl)-1H-pyrazolo[3,4-d]pyrimidin-4(5H)-one]: 2.4 nM; for `CC1CN(c2nc3c(c(CO)nn3[C@@H](C)c3ccc(C(F)(F)F)cc3)c(=O)[nH]2)C1` [Example 160, 3-(Hydroxymethyl)-6-(3-methylazetidin-1-yl)-1-{(1S)-1-[4-(trifluoromethyl)phenyl]ethyl}-1,5-dihydro-4H-pyrazolo[3,4-d]pyrimidin-4-one]: 1.6 nM.

Regarding `CC(c1ccc(OC(F)F)c(Cl)c1)n1nc(C(F)(F)F)c2c(=O)[nH]c(O)nc21` (single isomer, unassigned) [Example 326, (S)- or (R)-1-(1-(3-Chloro-4-(difluoromethoxy)phenyl)ethyl)-6-hydroxy-3-(trifluoromethyl)-1H-pyrazolo[3,4-d]pyrimidin-4(5H)-one], the inhibition constant (Ki) is 16 nM. As for `CCC(c1ccc(C(C)(F)F)cc1F)n1nc(CF)c2c(=O)[nH]c(N(C)C)nc21` (single isomer, unassigned) [Example 215, (S)- or (R)-1-(1-(4-(1,1-Difluoroethyl)-2-fluorophenyl)propyl)-6-(dimethylamino)-3-(fluoromethyl)-1H-pyrazolo[3,4-d]pyrimidin-4(5H)-one], the Ki amounted to 0.98 nM.

Take `CCC(c1ccc(C(F)F)c(F)c1)n1nc(CF)c2c(=O)[nH]c(N(C)C)nc21` (single isomer, unassigned) [Example 344, (R)- or (S)-1-(1-(4-(Difluoromethyl)-3-fluorophenyl)propyl)-6-(dimethylamino)-3-(fluoromethyl)-1H-pyrazolo[3,4-d]pyrimidin-4(5H)-one]: the Ki was determined as 6.3 nM.

For `CC(c1ccc(OC(F)(F)F)c(F)c1)n1nc(C(F)(F)F)c2c(=O)[nH]c(O)nc21` (single isomer, unassigned) [Example 309, (R)- or (S)-1-{1-[3-Fluoro-4-(trifluoromethoxy)phenyl]ethyl}-6-hydroxy-3-(trifluoromethyl)-1,5-dihydro-4H-pyrazolo[3,4-d]pyrimidin-4-one], the Ki is 2.7 nM. The figure for `CC(c1ccc(C(F)(F)F)cc1F)n1nc(C(F)(F)F)c2c(=O)[nH]c(O)nc21` (single isomer, unassigned) [Example 306] is 330 nM; for `CCC(c1ccc(C(F)F)cc1)n1nc(CO)c2c(=O)[nH]c(N(C)C)nc21` (single isomer, unassigned) [Example 92, (R)- or (S)-1-(1-(4-(Difluoromethyl)phenyl)propyl)-6-(dimethylamino)-3-(hydroxymethyl)-1H-pyrazolo[3,4-d]pyrimidin-4(5H)-one] it is 8.4 nM. The same measure for `CC1(C(c2ccc(C(F)(F)F)cc2)n2nc(CO)c3c(=O)[nH]c(O)nc32)CC1` (single isomer, unassigned) [Example 4]: 342 nM; for `CC(c1ccc(C(F)F)c(F)c1)n1nc(CO)c2c(=O)[nH]c(N(C)C)nc21` (single isomer, unassigned) [Example 104, (R)- or (S)-1-(1-(4-(Difluoromethyl)-3-fluorophenyl)ethyl)-6-(dimethylamino)-3-(hydroxymethyl)-1H-pyrazolo[3,4-d]pyrimidin-4(5H)-one]: 40 nM; for `CCC(c1ccc(C(C)(F)F)cc1)n1nc(CF)c2c(=O)[nH]c(N(C)C)nc21` (single isomer, unassigned) [Example 204, (R)- or (S)-1-(1-(4-(1,1-Difluoroethyl)phenyl)propyl)-6-(dimethylamino)-3-(fluoromethyl)-1H-pyrazolo[3,4-d]pyrimidin-4(5H)-one]: 1.4 nM.
